One test addresses T1, HMG-CoA reductase (Rattus norvegicus, UniProt P51639).
T1 construct: microsomes were separated from liver tissues to be used as an enzyme source; from tissue; host or cells: liver microsomes of fed rats
T1 sequence (P51639 1-887): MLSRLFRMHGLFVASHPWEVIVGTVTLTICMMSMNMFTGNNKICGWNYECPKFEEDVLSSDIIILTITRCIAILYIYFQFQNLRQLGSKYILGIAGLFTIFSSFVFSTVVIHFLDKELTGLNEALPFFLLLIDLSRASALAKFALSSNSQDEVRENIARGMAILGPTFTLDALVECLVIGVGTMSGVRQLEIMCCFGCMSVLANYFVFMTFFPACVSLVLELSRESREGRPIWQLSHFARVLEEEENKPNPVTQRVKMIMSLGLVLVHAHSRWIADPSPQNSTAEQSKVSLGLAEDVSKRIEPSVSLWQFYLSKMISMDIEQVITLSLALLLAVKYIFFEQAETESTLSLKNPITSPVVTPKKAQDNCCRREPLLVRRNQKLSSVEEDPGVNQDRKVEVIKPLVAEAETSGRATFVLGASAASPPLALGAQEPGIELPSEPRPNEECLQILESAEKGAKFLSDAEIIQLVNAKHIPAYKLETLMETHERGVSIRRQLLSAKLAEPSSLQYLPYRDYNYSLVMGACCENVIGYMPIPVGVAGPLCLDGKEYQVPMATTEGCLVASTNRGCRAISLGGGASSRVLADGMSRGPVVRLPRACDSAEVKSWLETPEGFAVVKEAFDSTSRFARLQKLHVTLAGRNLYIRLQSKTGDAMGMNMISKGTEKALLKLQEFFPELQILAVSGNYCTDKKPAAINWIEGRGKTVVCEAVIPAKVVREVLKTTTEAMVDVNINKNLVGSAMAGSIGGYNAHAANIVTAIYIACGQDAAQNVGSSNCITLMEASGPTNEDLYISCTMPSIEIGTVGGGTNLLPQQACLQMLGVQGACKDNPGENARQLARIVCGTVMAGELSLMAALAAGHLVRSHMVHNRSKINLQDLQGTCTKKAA
Kind of test: HMG-CoA reductase activity in liver microsomes of fed rats. In kind it is in vivo. The method, then: To determine the effect of feeding NG5006 to rats on the activities of ACAT and HMG-CoA reductase, microsomes were separated from liver tissues to be used as an enzyme source.
1 g each of the livers taken from each group of rats of Example 12 was homogenized in 5 ml of homogenization medium(0. 1 M KH2PO4, pH 7.4, 0.1 mM EDTA and 10 mM β-mercaptoethanol). The homogenate was centrifuged at 3,000×g for 10 min. at 4° C. and the supernatant thus obtained was centrifuged at 15,000×g for 15 min. at 4° C. to obtain a supernatant. The supernatant was put into an ultracentrifuge tube(Beckman) and centrifuged at 100,000×g for 1 hour at 4° C. to obtain microsomal pellets, which were then suspended in 3 ml of the homogenization medium and centrifuged at 100,000×g for 1 hour at 4° C. The pellets thus obtained were suspended in 1 ml of the homogenization medium. The protein concentration of the resulting suspension was determined by Lowry's method and then adjusted to 4 to 8 mg/ml. The resulting suspension was stored in a deep freezer(Biofreezer, Forma Scientific Inc.).
The activity of HMG-CoA reductase was determined by employing [^14C]HMG-CoA, in accordance with the method of Shapiro et al.(Biochemica et Biophysica Acta, 370, 369-377(1974)) as follows.
The enzyme in the supernatant containing the microsome obtained in (Step 1) was activated at 37° C. for 30 min. Added to a reaction tube were 20 μl of HMG-CoA reductase assay buffer(0.25M KH2PO4(pH 7.0), 8.75 mM EDTA, 25 mM DTT, 0.45 M KCl and 0.25 mg/ml BSA), 5 μl of 50 mM NADPH, 5 μl of [^14C]HMG-CoA(0.05μ Ci/tube, final conc. 120μM), and 10 μl of activated microsomal enzyme(0.03-0.04 mg), and the mixture was incubated at 37° C. for 30 min. […] A region having a Rf value ranging from 0.65 to 0.75 was removed by scraping with a disposable cover slips and assayed for radioactivity with 1450 Microbeta liquid scintillation counter(Wallac Co., Finland). Enzyme activities were calculated as picomoles mevalonic acid synthesized per min. per mg protein(pmoles/min/mg protein).
(In general: Microsomes from liver hold many membrane-bound enzymes, among them those of drug oxidation.)

For test [1], the system named is New Zealand White rabbits. Kind of test: Abnormal fat-containing liver cells (fatty liver) in cholesterol-fed rabbits. The test is classed as in vivo, rabbit. The method, then:
22 three-month-old New Zealand White rabbits(Yeonam Horticulture and Animal Husbandry College, Korea) each weighing about 2.0 to 2.3 kg were bred under a condition of temperature 20±2° C., relative humidity 55±10%, and photoperiod 12L/12D. The rabbits were divided two groups of 6 rabbits and a group of 10 rabbits, and the rats of three groups were fed with three different diets, i.e., RC4 diet(Oriental Yeast Co., Japan) containing 1% cholesterol(Control group); 1% cholesterol plus 1 mg/kg Lovastatin® (Merck, U.S.A.)(Comparative group); and 1% cholesterol plus 0.1% NG5006, respectively. RC4 diet comprises 7.6% moisture, 22.8% crude protein, 2.8% crude fat, 8.8% crude ash, 14.4% crude cellulose and 43.6% soluble nitrogen-free substances. The rabbits were bred for 8 weeks while being allowed free access to the diets and water.
In order to evaluate the effects of feeding a high cholesterol diet with NG5006 on liver tissues, the liver specimens taken from the sacrificed rabbit in Step 2 of Example 14 were treated in accordance with the procedure disclosed in Fogt F. and Nanji A., Toxicology and Applied Pharmacology, 136, 87-93, 1996; and Keegan A., et al., Journal of Hepatology, 23, 591-600, 1995, and observed under a microscope to be classified into four grades, i.e., 1+(0-25%), 2+(26-50%), 3+(51-75), 4+(76-100%) based on the proportion of abnormal fat-containing cells around the central vein in the liver acinus. The results were tested by student t-test by using Microsoft excel(version 7.0) program.

Take `CCCCCCCCCCCCCCCCOc1cc(O)c2c(c1)OC(c1ccc(O)cc1)CC2=O` (centres unmarked) [NG5006, Naringenin 7-O-cetyl Ether]: the “HMG-CoA activity lower than that of the control group” value on HMG-CoA reductase (NG5006-fed rat group) stood at 27.5%. Moreover, the HMG-CoA reductase activity on HMG-CoA reductase (liver microsomes of rats fed 1% cholesterol plus 0.02% naringenin or 0.036% NG5006, six weeks) is recorded as 81.6 ± 6.0 pmole/min/mg protein. The “microscopic features of the livers (FIGS. 2B, 2C)” value in test [1] (1% cholesterol plus 1 mg/kg Lovastatin or 0.1% NG5006) is “almost all liver cells are of a normal shape”. For the same molecule, the “formation of fatty liver compared to the Control and the Lovastatin group, in words” value in test [1] (1% cholesterol plus 0.1% NG5006) is listed as “significantly inhibits the formation of fatty liver”. In addition, the “Proportion of abnormal fat-containing liver cells (grade)” value in test [1] (grades 1+(0-25%), 2+(26-50%), 3+(51-75), 4+(76-100%), 1% cholesterol plus 1 mg/kg Lovastatin or 0.1% NG5006, 8 weeks) worked out at 2.2 ± 0.9.

The record behind these values is patent US6455577B2, “Flavanone derivatives and composition for preventing or treating blood lipid level-related diseases comprising same” (Korea Research Institute of Bioscience and Biotechnology, priority 2000, dated 2002).
